This note sets out measurements from patent US20100075950A1, “PHENY[…] DOPAMINE RECEPTOR” (AUSPEX PHARMACEUTICALS, INC., priority 2008, published 2010).

This data set in a line: In vitro liver microsomal stability assay. It is filed as in vitro ADME. The settings on record: 1 mg per mL liver microsome protein, NADPH-generating system, 5 microgram per mL test compound, about 37° C., 0-60 minutes, LC/MS/MS. The protocol:
Liver microsomal stability assays were conducted at 1 mg per mL liver microsome protein with an NADPH-generating system in 2% NaHCO3 (2.2 mM NADPH, 25.6 mM glucose 6-phosphate, 6 units per mL glucose 6-phosphate dehydrogenase and 3.3 mM MgCl2). Test compounds were prepared as solutions in 20% acetonitrile-water and added to the assay mixture (final assay concentration 5 microgram per mL) and incubated at about 37° C. Final concentration of acetonitrile in the assay should be <1%. Aliquots (50 μL) were taken out at times 0, 15, 30, 45, and 60 minutes, and diluted with ice cold acetonitrile (200 μL) to stop the reactions. Samples were centrifuged at 12,000 RPM for about 10 minutes to precipitate proteins. Supernatants were transferred to microcentrifuge tubes and stored for LC/MS/MS analysis of the degradation half-life of the test compounds.
On the technique in general: Liver microsomes are vesicles of endoplasmic reticulum, rich in cytochrome P450 enzymes.

`Cl.[2H]C([2H])([2H])C(NC(C)C(=O)c1cccc(Cl)c1)(C([2H])([2H])[2H])C([2H])([2H])[2H]` (stereo not shown) [Example 2, 2-(tent-d9-Butylamino)-1-(3-chlorophenyl)propan-1-one Hydrochloride]: the “degradation half-life as compared to the non-isotopically enriched compound” value was “improved degradation half-life”.
